What follows are molecules tested on 935938-334-R-J1-PDC complex spheroid viability (assay: Anticancer human tumor 935938-334-R-J1-PDC patient-derived small intestine adenocarcinoma cell line growth inhibition [POLQ]). Settings: second compound 0.0316 µM; first compound 0.00316 µM; hits give low values.
Description: Multicellular complex tumor spheroid response to Polymerase (POL) inhibitors (novobiocin, ART-558, RP6685) in combination with a variety of drugs and investigational agents in selected tumor cell lines
The POL inhibitors (novobiocin, ART-558, and RP6685) were evaluated both individually and in combination with standard of care and investigational anticancer small molecules within a complex spheroid model of solid tumors. . Complex spheroids include a stromal component modeled by human endothelial cells (HUVEC) and fibroblasts modeled by human mesenchymal stem cells (MSCs). The concentration ranges selected for each drug and investigational agent were based upon clinically achievable concentrations if the clinical Cmax of the agent was known.
Compounds. The drugs and investigational agents: novobiocin (NSC847541), ART-558 (NSC835418), RP-6685 (NSC848927), peposertib (NSC802822), ceralasertib (NSC780249), elimusertib (NSC800525), camonsertib (NSC841442), AZD-1390 (NSC803789), olaparib (NSC753686), talazoparib (NSC767125), rucaparib (NSC756644), sotorasib (NSC818433), MRTX-1133 (NSC836407), SN-38 (NSC673596), topotecan (NSC609699), epotoside (NSC141540), doxorubicin (NSC123127), gemcitabine (NSC613327), 5-fluorouracil (NSC19893), paclitaxel (NSC125973), vemurafenib (NSC761431), MSA-2 (NSC828583), SN-011 (NSC837082), adavosertib (NSC754352), prexasertib (NSC758257), carboplatin (NSC241240) and oxaliplatin (NSC266046), were obtained from the National Cancer Institute (NCI) Developmental Therapeutics Program Chemical Repository (21). The FDA-approved anticancer drug set is available from the Developmental Therapeutics Program at https://dtp.cancer.gov/organization/dscb/obtaining/. […] The stock solutions were prepared in dimethyl sulfoxide (DMSO, Sigma-Aldrich, St. Louis, MO, cat. D2650), except for the platinum compounds which were prepared in saline (Quality Biological, Gaithersburg, MD, cat. 114-055-101), at 800-fold the tested concentration and stored at -70 degrees C prior to their use. All drugs and investigational agents were tested over a range starting from a high concentration at or near the clinical Cmax and decreasing in half-log increments. If the clinical Cmax for an agent had not been determined, the highest concentration tested was 10 microM, except for SN-38, which was tested at a high concentration of 1 microM.
Cell Culture. All cells were maintained in an incubator at 37 degrees C and 5% CO2 with 95% humidity. The PDC lines were cultured according to standard operating procedures established by the NCI PDMR (https://pdmr.cancer.gov). Table 3 of the manuscript, lists the cell lines along with the number of the three cell types plated to form the mct-spheroids and media for tumor cell growth. After thawing, all PDC lines, except 997537-175-T-J1-PDC and 415267-285-R-J2-PDC, were cultured in Matrigel-coated flasks prepared with a working solution of 1X Ham's F-12 nutrient mix, without supplementation (Thermo Fisher Scientific, cat. 11765054), 100 U/mL penicillin-streptomycin (Thermo Fisher Scientific, cat. 15140122), and 2.5% Matrigel (Corning Inc., Corning, NY, cat. 354248) for the first three passages. The two PDC lines 997537-175-T-J1-PDC and 415267-285-R-J2-PDC were cultured on uncoated flasks. The 857933-349-R-J2-PDC line was cultured in 6C/Colon 1B media containing advanced DMEM/F-12 (Thermo Fisher Scientific, cat. 12634028), 10 mM HEPES (Thermo Fisher Scientific, cat. 15630080), 1X GlutaMAX supplement (Thermo Fisher Scientific, cat. 35050061), 0.1 mg/mL primocin (InvivoGen, San Diego, CA, cat. ant-pm-2), 10% defined fetal bovine serum, heat inactivated (HyClone Laboratories Inc., Logan, UT, cat. SH30070.03HI), 50% L-WRN conditioned media (ATCC, cat. CRL-3276), 1.25 mM N-Acetyl-L-cysteine (Sigma-Aldrich, cat. A9165), 10 mM nicotinamide (Sigma-Aldrich, cat. N0636), 1X B-27 supplement (Thermo Fisher Scientific, cat. 17504044), 1X N-2 supplement (Thermo Fisher Scientific, cat. […]
With `CCc1c2c(nc3ccc(O)cc13)-c1cc3c(c(=O)n1C2)COC(=O)[C@]3(O)CC` + Cc1cccc(N(C)C(=O)C2C(O)CCN2c2nc(C)cc(C(F)(F)F)c2C#N)c1 the viability, T/C was 96.3%.

Same assay, conditions: second compound 0.0316 µM; first compound 0.01 µM; hits give low values
`CCc1c2c(nc3ccc(O)cc13)-c1cc3c(c(=O)n1C2)COC(=O)[C@]3(O)CC` + Cc1cccc(N(C)C(=O)C2C(O)CCN2c2nc(C)cc(C(F)(F)F)c2C#N)c1 was tested, and the viability, T/C was 55.6%.

Same assay, conditions: second compound 0.0316 µM; first compound 0.0316 µM; hits give low values
For `CCc1c2c(nc3ccc(O)cc13)-c1cc3c(c(=O)n1C2)COC(=O)[C@]3(O)CC` + Cc1cccc(N(C)C(=O)C2C(O)CCN2c2nc(C)cc(C(F)(F)F)c2C#N)c1, the viability, T/C was 41.4%.
Work on `O=c1[nH]cc(F)c(=O)[nH]1` + COC1C(OC(N)=O)C(O)C(Oc2ccc3c(O)c(NC(=O)c4ccc(O)c(CC=C(C)C)c4)c(=O)oc3c2C)OC1(C)C yielded a viability, T/C of 85.7%.
Molecule `COc1cc2cc(C(=O)CCC(=O)O)sc2cc1OC` + Nc1ccc(C#CCN(C(=O)Cc2ncc(C(F)(F)F)cc2C(F)(F)F)c2ccc(F)cc2)nn1 has a viability, T/C of 102%.
Molecule `C#Cc1c(F)ccc2cc(O)cc(-c3ncc4c(N5CC6CCC(C5)N6)nc(OCC56CCCN5CC(F)C6)nc4c3F)c12` (centres undefined) + Cc1cccc(N(C)C(=O)C2C(O)CCN2c2nc(C)cc(C(F)(F)F)c2C#N)c1 has a viability, T/C of 89.8%.

Same assay, conditions: second compound 0.0316 µM; first compound 0.1 µM; hits give low values
In the case of `CCc1c2c(nc3ccc(O)cc13)-c1cc3c(c(=O)n1C2)COC(=O)[C@]3(O)CC` + Cc1cccc(N(C)C(=O)C2C(O)CCN2c2nc(C)cc(C(F)(F)F)c2C#N)c1, the viability, T/C is reported as 33.8%.
Molecule `O=c1[nH]cc(F)c(=O)[nH]1` + COC1C(OC(N)=O)C(O)C(Oc2ccc3c(O)c(NC(=O)c4ccc(O)c(CC=C(C)C)c4)c(=O)oc3c2C)OC1(C)C has a viability, T/C of 96.3%.
`COc1cc2cc(C(=O)CCC(=O)O)sc2cc1OC` + Nc1ccc(C#CCN(C(=O)Cc2ncc(C(F)(F)F)cc2C(F)(F)F)c2ccc(F)cc2)nn1 was tested, and the viability, T/C was 101%.
`C#Cc1c(F)ccc2cc(O)cc(-c3ncc4c(N5CC6CCC(C5)N6)nc(OCC56CCCN5CC(F)C6)nc4c3F)c12` (centres undefined) + Cc1cccc(N(C)C(=O)C2C(O)CCN2c2nc(C)cc(C(F)(F)F)c2C#N)c1 was tested, and the viability, T/C was 97.8%.

Same assay, conditions: second compound 0.0316 µM; first compound 0.316 µM; hits give low values
With `CCc1c2c(nc3ccc(O)cc13)-c1cc3c(c(=O)n1C2)COC(=O)[C@]3(O)CC` + Cc1cccc(N(C)C(=O)C2C(O)CCN2c2nc(C)cc(C(F)(F)F)c2C#N)c1 the viability, T/C was 36.6%.
`O=c1[nH]cc(F)c(=O)[nH]1` + COC1C(OC(N)=O)C(O)C(Oc2ccc3c(O)c(NC(=O)c4ccc(O)c(CC=C(C)C)c4)c(=O)oc3c2C)OC1(C)C showed a viability, T/C of 76.8%.
`COc1cc2cc(C(=O)CCC(=O)O)sc2cc1OC` + Nc1ccc(C#CCN(C(=O)Cc2ncc(C(F)(F)F)cc2C(F)(F)F)c2ccc(F)cc2)nn1 was tested, and the viability, T/C was 101%.
`C#Cc1c(F)ccc2cc(O)cc(-c3ncc4c(N5CC6CCC(C5)N6)nc(OCC56CCCN5CC(F)C6)nc4c3F)c12` (centres undefined) + Cc1cccc(N(C)C(=O)C2C(O)CCN2c2nc(C)cc(C(F)(F)F)c2C#N)c1 was tested, and the viability, T/C was 65.1%.

Same assay, conditions: second compound 0.0316 µM; first compound 1 µM; hits give low values
For `CCc1c2c(nc3ccc(O)cc13)-c1cc3c(c(=O)n1C2)COC(=O)[C@]3(O)CC` + Cc1cccc(N(C)C(=O)C2C(O)CCN2c2nc(C)cc(C(F)(F)F)c2C#N)c1, the viability, T/C was 29.1%.
With `O=c1[nH]cc(F)c(=O)[nH]1` + COC1C(OC(N)=O)C(O)C(Oc2ccc3c(O)c(NC(=O)c4ccc(O)c(CC=C(C)C)c4)c(=O)oc3c2C)OC1(C)C the viability, T/C was 71.9%.
`COc1cc2cc(C(=O)CCC(=O)O)sc2cc1OC` + Nc1ccc(C#CCN(C(=O)Cc2ncc(C(F)(F)F)cc2C(F)(F)F)c2ccc(F)cc2)nn1 showed a viability, T/C of 93.6%.
`C#Cc1c(F)ccc2cc(O)cc(-c3ncc4c(N5CC6CCC(C5)N6)nc(OCC56CCCN5CC(F)C6)nc4c3F)c12` (centres undefined) + Cc1cccc(N(C)C(=O)C2C(O)CCN2c2nc(C)cc(C(F)(F)F)c2C#N)c1 showed a viability, T/C of 75.2%.

Same assay, conditions: second compound 0.0316 µM; first compound 3.16 µM; hits give low values
With `O=c1[nH]cc(F)c(=O)[nH]1` + COC1C(OC(N)=O)C(O)C(Oc2ccc3c(O)c(NC(=O)c4ccc(O)c(CC=C(C)C)c4)c(=O)oc3c2C)OC1(C)C the viability, T/C was 67.4%.
`COc1cc2cc(C(=O)CCC(=O)O)sc2cc1OC` + Nc1ccc(C#CCN(C(=O)Cc2ncc(C(F)(F)F)cc2C(F)(F)F)c2ccc(F)cc2)nn1 showed a viability, T/C of 87.7%.
Work on `C#Cc1c(F)ccc2cc(O)cc(-c3ncc4c(N5CC6CCC(C5)N6)nc(OCC56CCCN5CC(F)C6)nc4c3F)c12` (centres undefined) + Cc1cccc(N(C)C(=O)C2C(O)CCN2c2nc(C)cc(C(F)(F)F)c2C#N)c1 yielded a viability, T/C of 40.2%.

Same assay, conditions: second compound 0.0316 µM; first compound 10 µM; hits give low values
For `O=c1[nH]cc(F)c(=O)[nH]1` + COC1C(OC(N)=O)C(O)C(Oc2ccc3c(O)c(NC(=O)c4ccc(O)c(CC=C(C)C)c4)c(=O)oc3c2C)OC1(C)C, the viability, T/C was 57%.
Molecule `COc1cc2cc(C(=O)CCC(=O)O)sc2cc1OC` + Nc1ccc(C#CCN(C(=O)Cc2ncc(C(F)(F)F)cc2C(F)(F)F)c2ccc(F)cc2)nn1 has a viability, T/C of 84.5%.
In the case of `C#Cc1c(F)ccc2cc(O)cc(-c3ncc4c(N5CC6CCC(C5)N6)nc(OCC56CCCN5CC(F)C6)nc4c3F)c12` (centres undefined) + Cc1cccc(N(C)C(=O)C2C(O)CCN2c2nc(C)cc(C(F)(F)F)c2C#N)c1, the viability, T/C is reported as 29.7%.
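Also: spheroids exposed to drugs for seven days before viability read; 100% = DMSO vehicle control wells.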
